Experimental data reported in US20160310445A1, “PREVENTION AND COUNTERACTION OF DIET-INDUCED THROMBOSIS RISK” (VITAK BV, priority 2013, published 2016).

What was measured:
[1] = test system: uncarboxylated osteocalcin relative to total osteocalcin; experiment: Vitamin K status by ucOC/tOC ratio in renal transplant recipients treated with menaquinone-7 (Experiment 5); format: in vivo, renal transplant recipients (human)
Text: In yet a further aspect, vitamin K used according to the present invention is to be administered to specific groups of subjects. As already stated supra, mammalian subjects according to the invention are in particular human subjects. Vitamin K may, in the context of the invention, be administered to healthy or apparently healthy human subjects, preferably healthy or apparently healthy adult human subjects, which may benefit from vitamin K supplementation. In particular, these subjects are characterized in that they have a regular vitamin K status and a normal thrombosis risk, particularly a normal venous thrombosis risk. The vitamin K status may e.g. be determined using the ucOC/tOC ratio, i.e. the amount of circulating uncarboxylated osteocalcin (ucOC) relative to the total amount of osteocalcin (tOC). The vitamin K status may also be determined using other methods, e.g. the carboxylation degree of the vascular Gla-protein MGP, but since this assay is not yet commercially available, the ucOC/tOC ratio will be used throughout this document.
In the present study, a group of 32 RTR were randomly subdivided into 4 groups of 8 subjects each and compared with 24 age- and sex-matched healthy volunteers.
The RTR were treated with the following doses of vitamin K2 (menaquinone-7) for 3 months: 0, 90, 180 and 360 μg/day. Blood was taken at baseline and at the end of the study to prepare EDTA plasma and serum. Vitamin K status was assessed by measuring the ucOC/tOC ratio and the thrombosis tendency was estimated from the ETP values.

[2] = test system: Endogenous Thrombin Potential (thrombin generation in plasma); experiment: ETP in renal transplant recipients treated with menaquinone-7 (Experiment 5); format: in vivo, renal transplant recipients (human)
Text: (§1) There are several ways in which thrombosis tendency or increased thrombosis risk may be established, but most of them are based on one of the two following principles: • a) Citrated plasma is collected by venipuncture and clotting is induced by adding tissue factor (thromboplastin) and recalcification. The time required to clot is compared to the clotting time of a reference sample and expressed as International Normalized Ratio (INR). This method is sensitive for monitoring patients during anticoagulation treatment (INR>2.0), but insensitive for INR values<1.0 (increased thrombosis risk). • b) Citrated plasma is collected by venipuncture, defibrinated and the conversion of prothrombin into thrombin is initiated by adding tissue factor and calcium. The total amount of thrombin generated in a certain time period is expressed as Endogenous Thrombin Potential (ETP), whereas also other kinetic characteristics (thrombin peak height, time to peak) provide additional information (E. De Smedt, R. Al Dieri, H. M. Spronk, K. Hamulyak, H. ten Cate, H. C. Hemker: Thromb. Haemost. 2008; 100:343-349).
The ETP reflects the amount of thrombin that can be formed in a period of time following activation of platelet-poor plasma. The amount of thrombin generated is monitored using a chromogenic substrate for thrombin, and results from three independent principles: the circulating concentration of coagulation factors, the concentration of coagulation inhibitors (proteins C and S) and the concentration of thrombin inhibitors such as antithrombin III. Typical ETP curves show a rapid increase of thrombin formed in the first 6-8 minutes after activation, followed by a decline caused by thrombin inhibitors such as antithrombin III. […] Generally, the ETP is expressed as the area under the curve during the first 30 minutes of thrombin formation. […]
The RTR were treated with the following doses of vitamin K2 (menaquinone-7) for 3 months: 0, 90, 180 and 360 μg/day. […] Vitamin K status was assessed by measuring the ucOC/tOC ratio and the thrombosis tendency was estimated from the ETP values.

[3] = test system: Endogenous Thrombin Potential (thrombin generation in plasma); experiment: ETP at baseline and after one year of vitamin K1 by tertile of vitamin K status (Experiment 3); format: in vivo, postmenopausal women; conditions: 1 mg/day, group with the highest ucOC/tOC ratio (0.20, n=19), only in this group
Text: as §1, with “This method is sensitive for monitoring patients during anticoagulation treatment (INR>2.0), but insensitive for INR values<1.0 (increased thrombosis risk). • b) Citrated plasma is collected by venipuncture, defibrinated and the conversion of prothrombin into thrombin is initiated by adding tissue factor and calcium.” left out
The ETP reflects the amount of thrombin that can be formed in a period of time following activation of platelet-poor plasma. The amount of thrombin generated is monitored using a chromogenic substrate for thrombin, and results from three independent principles: the circulating concentration of coagulation factors, the concentration of coagulation inhibitors (proteins C and S) and the concentration of thrombin inhibitors such as antithrombin III. […] Generally, the ETP is expressed as the area under the curve during the first 30 minutes of thrombin formation. […]

| Compound | change of ucOC/tOC ratio with dose ([1]; 0, 90, 180 and 360 μg/day, 3 months, FIG. 5A) | decline of ucOC/tOC ratio compared to baseline ([1]; 180 and 360 μg/day, 3 months) | difference in ucOC/tOC ratio between the 0 μg/day and the 360 μg/day intake groups ([1]; t=3 months) | change of ETP with dose ([2]; 0, 90, 180 and 360 μg/day, 3 months, FIG. 5B) | decline of ETP compared to baseline ([2]; 180 and 360 μg/day, 3 months) | difference in ETP between the 0 μg/day and the 360 μg/day intake groups ([2]; t=3 months) | change of ETP after vitamin K supplementation [3] |
| --- | --- | --- | --- | --- | --- | --- | --- |
| CC(C)=CCC/C(C)=C/CC/C(C)=C/CC/C(C)=C/CC/C(C)=C/CC/C(C)=C/CC/C(C)=C/CC1=C(C)C(=O)c2ccccc2C1=O [menaquinone-7] | decreased in a dose-dependent way | statistically significant | significant | decreased at increasing doses | statistically significant | significant |  |
| CC1=C(C/C=C(\C)CCC[C@H](C)CCC[C@H](C)CCCC(C)C)C(=O)c2ccccc2C1=O [vitamin K1, phylloquinone] |  |  |  |  |  |  | declined significantly |
